According to PubChem BioAssay (NCI):
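Cultured in 96-well plates, cells were exposed to test compound for 48 hours across five concentrations. At the TGI there is no net growth.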

Assays:
Experiment in all cases: growth of human tumour cells (NCI), 48 h
[1] = tested on: TK-10 renal
[2] = tested on: A498 renal
[3] = tested on: CAKI-1 renal
[4] = tested on: SR leukemia
[5] = tested on: SK-OV-3 ovarian
[6] = tested on: HL-60(TB) leukemia
[7] = tested on: DU-145 prostate
[8] = tested on: OVCAR-5 ovarian
[9] = tested on: SK-MEL-5 melanoma
[10] = tested on: HS 578T breast
[11] = tested on: IGROV1 ovarian
[12] = tested on: PC-3 prostate
[13] = tested on: MDA-MB-435
[14] = tested on: UACC-257 melanoma
[15] = tested on: OVCAR-3 ovarian
[16] = tested on: COLO 205 colon
[17] = tested on: MDA-N
[18] = tested on: CCRF-CEM leukemia
[19] = tested on: NCI/ADR-RES ovarian
[20] = tested on: SF-295 CNS
[21] = tested on: U251 CNS
[22] = tested on: ACHN renal
[23] = tested on: M14 melanoma
[24] = tested on: HOP-62 NSCLC
[25] = tested on: LOX IMVI melanoma
[26] = tested on: HT29 colon
[27] = tested on: NCI-H460 lung
[28] = tested on: OVCAR-8 ovarian
[29] = tested on: HCT-116 colon
[30] = tested on: MCF7 breast
[31] = tested on: OVCAR-4 ovarian
[32] = tested on: NCI-H522 lung
[33] = tested on: HCT-15 colon
[34] = tested on: SK-MEL-2 melanoma
[35] = tested on: NCI-H23 lung
[36] = tested on: MDA-MB-231 breast
[37] = tested on: SNB-75 CNS
[38] = tested on: A549 NSCLC
[39] = tested on: RPMI-8226 leukemia
[40] = tested on: K-562 leukemia
[41] = tested on: SW-620 colon
[42] = tested on: T-47D breast
[43] = tested on: SN12C renal
[44] = tested on: SK-MEL-28 melanoma

For `COP(=O)(OC)/C(=C/c1cn(C(C)=O)c2ccccc12)NC(C)=O`, the TGI [1] was over 100 µM, the TGI [2] was 94.3 µM and the TGI [3] was over 100 µM. The TGI [4] was over 100 µM, the TGI [5] was over 100 µM and the TGI [6] was 42.6 µM. For the same molecule, the TGI [7] was over 100 µM, the TGI [8] was over 100 µM and the TGI [9] was over 100 µM. It also gave a TGI [10] of over 100 µM, a TGI [11] of over 100 µM and a TGI [12] of over 100 µM. For the same molecule, the TGI [13] was over 100 µM, the TGI [14] was over 100 µM and the TGI [15] was 66.2 µM. It also gave a TGI [16] of over 100 µM, a TGI [17] of 36.3 µM and a TGI [18] of 58.3 µM. The TGI [19] was over 100 µM, the TGI [20] was over 100 µM and the TGI [21] was over 100 µM. For the same molecule, the TGI [22] was over 100 µM, the TGI [23] was over 100 µM and the TGI [24] was over 100 µM. The TGI [25] was 41.9 µM, the TGI [26] was over 100 µM and the TGI [27] was over 100 µM. It also gave a TGI [28] of over 100 µM, a TGI [29] of over 100 µM and a TGI [30] of over 100 µM. It also gave a TGI [31] of over 100 µM, a TGI [32] of over 100 µM and a TGI [33] of 66.4 µM. For the same molecule, the TGI [34] was over 100 µM, the TGI [35] was over 100 µM and the TGI [36] was over 100 µM. For the same molecule, the TGI [37] was over 100 µM, the TGI [38] was over 100 µM and the TGI [39] was 45.3 µM. It also gave a TGI [40] of over 100 µM, a TGI [41] of over 100 µM and a TGI [42] of over 100 µM. The TGI [43] was over 100 µM and the TGI [44] was over 100 µM.
